# From patent publication US10876089B2, “Apparatus and method for high-fidelity podocyte cultivation” (priority 2016, dated 2020)
# Entries after “also recorded” stand apart in the source; their conditions may differ.
# How the values were obtained:
# Assay type in all cases: cell-based
# [1] = system: murine nephrin gene (NPHS1) in E11 murine podocytes; experiment: PAN stimulation of differentiated podocytes, nephrin gene expression by RT-qPCR; settings: 17-100 μM PAN for 24 hours (day 8 to 9); microcurvature surface; 15,000 cells/cm^2; (+)ATRA media
# Description: On day 9, cells were washed with warm, non-supplemented RPMI 1640 basal media prior to lysing and RNA isolation. A High Pure RNA Isolation Kit (Roche) was used according to manufacturer's instructions, using 50 μL of elution buffer for the final step. Each sample from the study consisted of 3 individual wells pooled together, to ensure that a sufficient amount of RNA was being collected. Thus, 9 wells were seeded for each group to generate n=3 samples per condition. Isolated RNA was converted to complementary DNA (cDNA) using the High Capacity cDNA Reverse Transcription Kit (Applied Biosystems, USA) for ensuing PCR applications. RNA solutions were diluted to a final 7.5 ng/μL in a total reaction volume of 60 μL. Real-time PCR was run on the generated cDNA using the TaqMan Gene Expression Assay (Applied Biosystems). cDNA was diluted to 3.33 ng/μL in a volume of 9 μL, for a total of 30 ng cDNA per reaction. […] Expression of murine nephrin gene (NPHS1, Thermo Fisher Scientific) and the housekeeping gene Beta-2-Microglobulin (B2M, Thermo Fisher Scientific) was determined using relative quantification analysis (28), where C57/bl6 mouse whole kidney cDNA was used as a positive control and as a normalizer in calculations. […]
# E11 murine podocytes = experiment: Immunofluorescent staining (F-actin, nephrin, WGA) of differentiated podocytes; settings: 100 μM PAN vs without PAN; microcurvature surface
# Description: For immunofluorescent staining, cells were first washed with Dulbecco's phosphate buffered saline (DPBS, Life Technologies) and then fixed in 4% paraformaldehyde solution for 15 min at room temperature, followed by another wash with DPBS. For F-actin staining, the cells were permeated and blocked in 10% (v/v) FBS and 0.25% Triton X100 in DPBS for 1 hour. Next, the cells were incubated with Alexa Fluor® 660 phalloidin (Thermo Fisher Scientific) for 1 hour. For Nephrin and Wheat Germ Agglutinin (WGA) staining, the cells were blocked in 10% normal goat serum for 1 hour. Next, the cells were incubated in primary anti-Nephrin antibody (Thermo Fisher Scientific) overnight at 4° C. followed by incubation with FITC goat anti-rabbit IgG (1:200 dilutions, Abcam, UK) for 1 hour at room temperature. Lastly, the cells were incubated with Rhodamine-WGA (1:1000 dilution, Vector Laboratories, USA) for 10 min at room temperature.
# The additional influence of the microcurvature topography is shown by the change from compacted, spindle-like cells to arborized morphologies. This was especially evident in the vehicle-only group.
# From immunostaining results, it appeared that cell membrane area and nephrin expression decreased, indicating a possible reduction in cell spreading as a result of the PAN insult. However, the localization of nephrin still consistently appeared on top of the bubbles. […]
# podocyte layer = experiment: Permeability of cells cultured on transwell microcurvature or flat membrane; settings: treatment by PAN, 15,000 or 50,000 cells/cm^2
# Text: One of the important physiological consequences from the disruption of the nephrin adhesion protein is the loss of barrier function from the podocyte slit diaphragm, which leads to abnormal protein levels in urine (e.g. albumin, etc.). The disclosed microcurvature membrane system may enable a direct measurement of the permeability of the podocyte layer in a non-invasive manner, in order to probe the barrier function at the podocyte slit diaphragm.
# The permeability of the microcurvature membrane, without cells, may be investigated using dye, fluorescently labeled molecules, or any molecule whose concentration may be quantified in the chamber solution. Some examples include 1-10 μM of 70 kDa TRITC-dextran or 60 kDa FITC-albumin. The molecule of interest may be placed in the upper transwell chamber and collected in the lower chamber over time, or vice-versa. […] FIG. 12F is a plot of example preliminary results showing the permeability of the membrane surface (also referred to as a “topomembrane”) in different configurations, namely without microcurvature (“flat topomembrane”) or with convex microcurvature (“bubble topomembrane”); with cells cultivated on the surface (“+cells”), before cell cultivation (“no cells”) or after cultivated cells are removed (“cells removed”); and compared to the culture well without any membrane (“transwells”). […]
smiles,measurement,setting,value
"CN(C)c1ncnc2c1ncn2[C@@H]1O[C@H](CO)[C@@H](N)[C@H]1O [PAN, Puromycin amino nucleoside]",nephrin gene expression compared to the PAN-free control,[1],moderate downregulation; also recorded: dose-response downregulated behaviour
same,cell membrane area (immunostaining),E11 murine podocytes,decreased
same,nephrin expression (immunostaining),E11 murine podocytes,decreased
same,permeability of cells in response to chemical insult,podocyte layer,increasing permeability
